Here are results for three compounds from patent US20130096092A1, “THIOETHER PRODRUG COMPOSITIONS AS ANTI-HIV AND ANTI-RETROVIRAL AGENTS” (Health and Human Services, priority 2010, published 2013).

A short description of data set [1]: Compound toxicity in monocyte-macrophages. The format is cell-based. The note with it: human, monocyte-macrophages; Table 1; read-out: TC50, Monocytes-macrophages.
Data set [2] concerns monocyte-macrophages. Description: Compound toxicity in monocyte-macrophages. The format is cell-based. To be noted: Table 2; read-out: TC50, Monocyte/Macrophage.
For data set [3], the system named is HIVBaL. Description: XTT cytoprotection assay, monocyte-macrophages infected with HIVBaL. The data set is classed as cell-based, HIV. The note with it: for EC50: monocyte-macrophages infected with HIVBaL, XTT. As for the experimental part:
(§1) The HIV cytoprotection assay has been previously described in Weislow, O, S. et al., J. Natl. Cancer Inst. 81, 577-86 (1989); Rice, W. G. et al., Antimicrob. Agents Chemother. 41, 419-26 (1997), and Rice, W. G. et al., Proc. Natl. Acad. Sci. USA 90, 9721-4 (1993). CEM-SS cells infected with HIV-1IIIB or monocyte-macrophages infected with HIVBaL were incubated with the compound for 6 days and antiviral activity determined by measurement of cell survival (cytoprotection) using XTT (2,3-bis(2-methoxy-4-nitro-5-sulfophenyl)-5-[(phenylamino)carbonyl]-2H-tetrazolium hydroxide) dye reduction. AZT was used as a positive control for all assays with each assay performed in duplicate with triplicate determinations per condition. Compound toxicity was measured the same way in uninfected CEM-SS cells. Effective antiviral concentrations providing 50% cytoprotection (EC50) and cellular growth inhibitory concentrations causing 50% cytotoxicity (IC50) were calculated.
Three compounds were assayed for antiviral activity using the XTT cytoprotection assay in CEM-SS cells infected with HIV-1IIIB and in monocyte-macrophages infected with HIVBaL and assayed for virucidal activity. The compounds are compound 7a (invention), 8 (comparative), and 7f (comparative). The structure of compound 8 is as follows:
(§2) Four compounds along with a positive control were assayed for antiviral activity using the XTT cytoprotection assay as described in Example 4. The cells used were CEM-SS cells infected with HIV-1RF, monocyte-macrophages infected with HIVBaL, and peripheral blood mononuclear cells (PBMC) infected with HIV-1HT/92/599. The compounds are compound 8 (comparative), 7a (invention), 10 (invention), 11 (invention), and 12 (invention).
A general note: Tetrazolium assays rely on reduction of a dye to a coloured formazan, in cell work by metabolically active cells.

The nature of data set [4]: Human plasma stability (RP-HPLC). The data set is classed as in vitro ADME. To be noted: 20 μM in 50% human plasma in PBS, 37° C., 1 hour; FIG. 7. As for the experimental part:
Compound 8 (comparative), compound 7a (invention), compound 10 (invention), compound 11 (invention), and compound 12 (invention) were dissolved in DMSO and diluted into 50% human plasma in PBS buffer at a final concentration of 20 μM. The samples were incubated at 37° C. for 1 hour and the amount of intact compound measured using RP-HPLC. The results are illustrated in FIG. 7.

In data set [5] the test system is HIV-1HT/92/599. Description: XTT cytoprotection assay, PBMC infected with HIV-1HT/92/599. The format is cell-based. To be noted: Human immunodeficiency virus 1; Table 2; PBMC infected with HIV-1HT/92/599, XTT; read-out: EC50 (50% cytoprotection), PBMC. As for the experimental part:
as §1, §2

Data set [6] in a line: pH stability in buffers (RP-HPLC). The format is physicochemical. The note with it: 250 μM; pH 5.0, 7.0, 9.0 buffers; 25° C., 30 days; FIG. 5. As for the experimental part: This example illustrates the pH stability of compound 7a. Compound 7a was dissolved in DMSO and diluted into the 100 mM sodium acetate buffer at pH 5.0 (shown in FIG. 5 as diamonds), 100 mM sodium phosphate buffer at pH 7.0 (shown in FIG. 5 as circles), and 100 mM Tris-HCl buffer at pH 9.0 (shown in FIG. 5 as squares) at a final compound concentration of 250 μM. The samples were incubated at 25° C. over the course of 30 days and the amount of intact compound was measured over time using RP-HPLC. The results are illustrated in FIG. 5.

The nature of data set [7]: Stability in vaginal fluid simulant (RP-HPLC). The data set is classed as physicochemical. To be noted: 400 μM; 25° C., 30 days; FIG. 6; compared with compound 8. As for the experimental part: The final concentration of the compounds was 400 μM. The samples were incubated at 25° C. over the course of 30 days and the amount of intact compound was measured over time using RP-HPLC. […] The results are illustrated in FIG. 6.

Data set [8] concerns HIV-1IIIB. Description: Cell-free virus inactivation (virucidal) assay. The data set is classed as cell-based. The note with it: for EC50: Human immunodeficiency virus 1, Table 1, HIV-1IIIB incubated with compound 2 h at 37° C., then added to CEM-SS cells. As for the experimental part:
Cell-free virus inactivation assays were performed as previously described in Song, Y. et al., Bioorg. Med. Chem. 10, 1263-73 (2002). Briefly, HIV-1IIIB was incubated with three concentrations of each compound for 2 h at 37° C. and then pelleted at 4° C. for 90 minutes at 18,000×g. Following several washes with DPBS to remove unbound compound, the virus was resuspended in cell culture media and added to CEM-SS cells at a titer to yield 85-90% cell killing at day 6 post-infection.

Data set [9] concerns HIV-1RF. As to the kind of experiment: XTT cytoprotection assay, CEM-SS cells infected with HIV-1RF. The data set is classed as cell-based. The note with it: Human immunodeficiency virus 1, Table 2, read-out: EC50 (50% cytoprotection), CEM-SS cells. As for the experimental part:
as §1, §2

Data set [10] in a line: Compound toxicity by XTT in uninfected CEM-SS cells. The data set is classed as cell-based. To be noted: human; Table 1; uninfected CEM-SS cells, XTT; read-out: TC50, CEM-SS cells. As for the experimental part: as §1
For data set [11], the system named is CEM-SS cells. The description is as above. The format is cell-based. The note with it: Table 2; read-out: TC50, CEM-SS cells. As for the experimental part:
as §1

Data set [12] is described as follows: Compound toxicity in PBMC. To be noted: human, peripheral blood mononuclear cells (PBMC); Table 2; read-out: TC50, PBMC. The format is cell-based. As for the experimental part: as §1, §2
Data set [13] concerns HIV-1IIIB. As to the kind of experiment: XTT cytoprotection assay, CEM-SS cells infected with HIV-1IIIB. The format is cell-based. The note with it: Human immunodeficiency virus 1, 144 h, Table 1, 6 days, read-out: EC50 (50% cytoprotection), CEM-SS cells. The protocol: as §1
Three compounds were assayed for antiviral activity using the XTT cytoprotection assay in CEM-SS cells infected with HIV-1IIIB and in monocyte-macrophages infected with HIVBaL and assayed for virucidal activity. The compounds are compound 7a (invention), 8 (comparative), and 7f (comparative).

Where [14] appears, read: Human immunodeficiency virus 1, 144 h, Table 1, 6 days, read-out: EC50 (50% cytoprotection), Monocytes-macrophages.
Setting [15] is: Human immunodeficiency virus 1, Table 2, read-out: EC50 (50% cytoprotection), Monocyte/Macrophage.

Where two headings read alike, the source gives them in different places.

Regarding `CC(C)C(=O)Oc1ccc(CSc2ccccc2C(=O)NCCC(N)=O)cc1` [Compound 7a, N-{2-[4-(isopropylcarbonyloxy)benzylthio]benzoyl}-β-alaninamide], the CC50 at 6 days in data set [1], in data set [10] and in data set [12] was above 100 µM throughout. Further, the CC50 in data set [2] and in data set [11] was above 100 µM each time. Also, the EC50 in data set [3] (setting [14]) stood at 0.6 µM; in [3] (setting [15]), 0.62 µM; in data set [5] it was 4.06 µM; in [8], 9.8 µM; in data set [9] it was 0.2 µM; in [13] it was 0.2 µM. Also, in [4], the “stability in human plasma, intact compound” value is “did not exhibit stability”. Moreover, the “pH stability, intact compound over time” value in data set [6] is “most stable at acidic pH”. The “stability in vaginal fluid simulant, intact compound over time” value in data set [7] is “significantly more stable”.

Take `CC(=O)Sc1ccccc1C(=O)NCCC(N)=O` [Compound 8]: the CC50 at 6 days in data set [1], in [10] and in data set [12] was above 100 µM each time. In addition, the CC50 in data set [2] and in data set [11] was above 100 µM each time. Also, the EC50 was found to be 2 µM in [3] (setting [14]); 1.97 µM in [3] (setting [15]); 5.74 µM in [5]; 0.9 µM in [8]; 0.6 µM in data set [9]; 0.6 µM in [13].

Regarding `NC(=O)CCNC(=O)c1ccccc1SCc1ccccc1` [Compound 7f], the CC50 at 6 days in [1] and in data set [10] was above 100 µM each time. Besides, the EC50 was above 100 µM in [3] (setting [14]), above 100 µM in data set [8] and 34.9 µM in [13]. For the same compound, the “activity in cytoprotection assay against infected monocytes-macrophages” value in [3] (as compared to compound 7a) is “inactive”. The “activity in the antiviral assay against HIV-1IIIB” value in [8] (virucidal assay, as compared to compound 7a) is “inactive”.
